Results published in US12370166B2, “Pentadecanoylcarnitine for treatment of conditions related to the quality of aging and longevity” (EPITRACKER, INC., priority 2021, dated 2025).

Legend:
[1] = molecular target: T1, 5-HT1A receptor (Homo sapiens, UniProt P08908); assay: Receptor-based pharmacological activity, agonist; assay type: biochemical; conditions: for EC50: read-out: RC50 (EC50)
T1 sequence (P08908 1-422): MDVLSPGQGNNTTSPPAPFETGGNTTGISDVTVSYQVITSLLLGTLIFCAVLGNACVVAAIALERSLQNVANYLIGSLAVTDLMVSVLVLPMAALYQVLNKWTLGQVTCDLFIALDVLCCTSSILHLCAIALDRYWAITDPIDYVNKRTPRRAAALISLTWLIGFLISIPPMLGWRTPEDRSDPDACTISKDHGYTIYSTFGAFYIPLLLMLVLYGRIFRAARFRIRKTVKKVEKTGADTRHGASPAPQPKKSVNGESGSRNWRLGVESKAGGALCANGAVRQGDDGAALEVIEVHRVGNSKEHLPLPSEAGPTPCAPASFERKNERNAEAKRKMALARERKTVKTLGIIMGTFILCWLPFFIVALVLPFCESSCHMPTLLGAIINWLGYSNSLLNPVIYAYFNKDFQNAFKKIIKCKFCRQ
Protocol: (§1) Methods for this study have been previously described (Venn-Watson, S., Lumpkin, R., Dennis, E. A. Efficacy of dietary odd-chain saturated fatty acid pentadecanoic acid parallels broad associated health benefits in humans: could it be essential? Sci Rep 10:8161 (2020)). Significant activities of pentadecanoylcarnitine were those tagged as having maximum pharmacological activities that were greater than or equal to 70% that of the internal control between the concentrations of 1 to 20 μM. Significant pharmacological activities caused by pentadecanoylcarnitine were compared with results from the same assays using pentadecanoic acid (C15:0).

[2] = molecular target: 5-HT1B receptor (Homo sapiens, UniProt P28222); assay: Receptor-based pharmacological activity, agonist; assay type: biochemical; conditions: for EC50: read-out: RC50 (EC50)
5-HT1B receptor, sequence (P28222 whole entry): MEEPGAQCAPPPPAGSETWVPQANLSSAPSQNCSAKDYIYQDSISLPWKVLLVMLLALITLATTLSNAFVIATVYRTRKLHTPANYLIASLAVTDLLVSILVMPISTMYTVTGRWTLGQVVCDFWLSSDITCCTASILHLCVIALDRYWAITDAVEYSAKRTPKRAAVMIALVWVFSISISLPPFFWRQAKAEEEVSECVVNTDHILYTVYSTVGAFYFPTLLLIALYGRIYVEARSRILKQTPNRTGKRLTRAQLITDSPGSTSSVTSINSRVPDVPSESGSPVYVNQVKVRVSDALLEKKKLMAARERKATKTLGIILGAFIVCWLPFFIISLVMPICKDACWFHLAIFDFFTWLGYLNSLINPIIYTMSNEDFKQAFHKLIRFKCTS
Protocol: as §1

[3] = test system: peroxisome proliferator-activated receptor (PPAR) α/δ; conditions: cited from earlier work
[4] = test system: AMP-activated protein kinase (AMPK); conditions: cited from earlier work
[5] = test system: mitochondrial function; conditions: cited from earlier work
[6] = test system: red blood cell membranes; conditions: cited from earlier work
[7] = test system: breast cancer cells; conditions: cited from earlier work
[8] = test system: human cell systems mimicking various disease states; conditions: cited from earlier work
[9] = test system: diet-induced obese mice modeling type 2 diabetes; conditions: daily oral, approximately 12 weeks; cited from earlier work
[10] = test system: in vivo model of nonalcoholic fatty liver disease; conditions: daily supplementation over 11 weeks; cited from earlier work
[11] = test system: 4H cell system; assay: Human primary cell phenotypic profiling, 4H cell system (autoimmunity, allergy, asthma); assay type: cell-based; conditions: 6.7 μM stated for pentadecanoylcarnitine, NS = not significant
Protocol: (§2) Methods for this human primary cell phenotypic profiling study were those previously described (Venn-Watson, S., Lumpkin, R., Dennis, E. A. Efficacy of dietary odd-chain saturated fatty acid pentadecanoic acid parallels broad associated health benefits in humans: could it be essential? Sci Rep 10:8161 (2020)). Significant activities of pentadecanoylcarnitine were those that were equal to or greater than 0.1|log 10| at 6.7 μM. Biomarkers with significant changes caused by pentadecanoylcarnitine were compared with results from the same study using pentadecanoic acid (C15:0).

[12] = test system: LPS cell system; assay: Human primary cell phenotypic profiling, LPS cell system (chronic inflammation, cardiovascular disease); assay type: cell-based; conditions: 6.7 μM stated for pentadecanoylcarnitine
Protocol: as §2

[13] = test system: SAg cell system; assay: Human primary cell phenotypic profiling, SAg cell system (chronic inflammation, autoimmune disease); assay type: cell-based; conditions: 6.7 μM stated for pentadecanoylcarnitine
Protocol: as §2

[14] = test system: BE3C cell system; assay: Human primary cell phenotypic profiling, BE3C cell system (COPD, lung inflammation); assay type: cell-based; conditions: 6.7 μM stated for pentadecanoylcarnitine
Protocol: as §2

[15] = test system: CASM3C cell system; assay: Human primary cell phenotypic profiling, CASM3C cell system (cardiovascular inflammation, restenosis); assay type: cell-based; conditions: 6.7 μM stated for pentadecanoylcarnitine
Protocol: as §2

[16] = test system: HDF3CGF cell system; assay: Human primary cell phenotypic profiling, HDF3CGF cell system (fibrosis, chronic inflammation); assay type: cell-based; conditions: 6.7 μM stated for pentadecanoylcarnitine
Protocol: as §2

[17] = test system: KF3CT cell system; assay: Human primary cell phenotypic profiling, KF3CT cell system (dermatitis, psoriasis); assay type: cell-based; conditions: 6.7 μM stated for pentadecanoylcarnitine
Protocol: as §2

[18] = test system: MyoF cell system; assay: Human primary cell phenotypic profiling, MyoF cell system (wound healing, matrix remodeling, fibrosis); assay type: cell-based; conditions: 6.7 μM stated for pentadecanoylcarnitine
Protocol: as §2

[19] = test system: /IMphg cell system; assay: Human primary cell phenotypic profiling, /IMphg cell system (chronic inflammation, restenosis, cardiovascular disease); assay type: cell-based; conditions: 6.7 μM stated for pentadecanoylcarnitine
Protocol: as §2

[20] = Agonist, positive control Serotonin hydrochloride, 1 to 20 μM, read-out: Max Response (%) Compared to Positive Control
[21] = Agonist, positive control Serotonin hydrochloride
[22] = Agonist, positive control Serotonin hydrochloride, 1 to 20 μM

## CCCCCCCCCCCCCCC(=O)O [Pentadecanoic acid (C15:0), Pentadecanoic acid]
[1]; [20]
  Emax: 0%
[1]; [21]
  EC50: > 20 µM
[2]; [20]
  Emax: 0%
[2]; [21]
  EC50: > 20 µM
[3]
  PPAR α/δ agonist activity: dual, partial
[4]
  AMPK activity: activator
[5]
  Effect on mitochondrial function: repair
[6]
  Effect on stability of red blood cell membranes: improve
[7]
  Effect on proliferation of breast cancer cells: decrease
[8]
  Properties in human cell systems mimicking various disease states: anti-inflammatory and antifibrotic properties
[9]
  Body weight gain compared to non-supplemented controls: lower
  Cholesterol compared to non-supplemented controls: lower
  Glucose compared to non-supplemented controls: lower
  Pro-inflammatory cytokines compared to non-supplemented controls: lower
[10]
  Anemia: attenuated
  Cholesterol: lowered
  Inflammation: lowered
  Liver fibrosis: attenuated
  Triglycerides: lowered

## CCCCCCCCCCCCCCC(=O)O[C@H](CC(=O)[O-])C[N+](C)(C)C [Pentadecanoylcarnitine, pentadecanoylcarnitine]
[11]
  VEGFR2 biomarker change: −0.11 log 10
[12]
  Tissue Factor biomarker change: +0.11 log 10
[13]
  B-Cell Proliferation change: −0.17 log 10
  E-Selectin biomarker change: −0.11 log 10
[14]
  CXCL8/IL-8 biomarker change: −0.21 log 10
  CXCL9/MIG biomarker change: −0.60 log 10
  CXCL10/IP-10 biomarker change: −0.10 log 10
  CXCL11/I-TAC biomarker change: −0.54 log 10
  HLA-DR biomarker change: −0.63 log 10
  IL-1a biomarker change: −0.19 log 10
  MMP-1 biomarker change: −0.27 log 10
  MMP-9 biomarker change: −0.34 log 10
  PAI-1 biomarker change: −0.24 log 10
  tPA biomarker change: −0.43 log 10
  uPA biomarker change: −0.28 log 10
  uPAR biomarker change: −0.12 log 10
[15]
  Proliferation change: +0.10 log 10
[16]
  MMP-1 biomarker change: −0.12 log 10
[17]
  CXCL10/IP-10 biomarker change: −0.10 log 10
[18]
  α-SM Actin biomarker change: −0.26 log 10
[19]
  MCP-1 biomarker change: −0.25 log 10
  sIL-10 biomarker change: −0.13 log 10
[1]; [22]
  Max Response (%) Compared to Positive Control: 78%
[1]; [21]
  EC50: 9.6 µM
[1]; at approximately 1 to 20 μM
  Pharmacological activity at 5-HT1A receptor: agonist
[2]; [22]
  Max Response (%) Compared to Positive Control: 74%
[2]; [21]
  EC50: 9.3 µM
[2]; at approximately 1 to 20 μM
  Pharmacological activity at 5-HT1B receptor: agonist
